From patent publication US12565467B2, “Compounds, compositions, and methods for the treatment of inflammatory, degenerative, and neurodegenerative diseases” (Board of Supervisors of Louisiana State University and …, priority 2015, dated 2026)
“Also recorded” adds a separate entry of the source.

Experiments:
[1] = test system: human retinal pigment epithelial cells (ARPE-19, HRPE); assay: Formation of hydroxylated derivatives from VLC-PUFA in human RPE cells in culture (LC-MS/MS); format: in vitro ADME; details: 34:6n3 100 nM, 12-16 hours, culture media
Experimental: FIG. 2. Evidence of cell-derived hydroxylated derivatives (29-hydroxy-34:6 and 22,29-dihydroxy-34:6) derived from the omega-3 VLC-PUFA 34:6n3 (C34:6) from human retinal pigment epithelial cells in culture. Human retinal pigment epithelial cells (spontaneously transformed ARPE-19 cells) or primary human retinal pigment epithelial cells (HRPE) were incubated with 34:6n3 (100 nM) during 12-16 hours and then the culture media collected lipid extracted and run in LC-MS/MS.
Evidence for the formation of hydroxylated VLC-PUFA in cells as postulated in FIG. 1, and as documented in FIG. 2. […] The preferred structures of 2 are 2a and 2b, while the preferred structures of 3 are 3a and 3b. […] The cell-derived hydroxylated derivatives 2 and 3 were obtained from human retinal pigment epithelial cells in culture. Human retinal pigment epithelial cells (spontaneously transformed ARPE-19 cells) or primary human retinal pigment epithelial cells (HRPE) were incubated with 34:6n3 (100 nM) during 12-16 hours and then the culture media collected lipid extracted and run in LC-MS/MS. […] The stereochemistry of the mono- and di-hydroxy compounds were not possible to determine, but they were presumed to be the same as those derived from DHA.

Bid = Bid protein by western blot in ARPE-19 cells under oxidative stress; format: cell-based, human
From the text: FIG. 6. (A) VLC-PUFA and elovanoids ELV1 and ELV2 mediated effect on Bid upregulation in ARPE-19 cells under stress. […] (B) VLC-PUFA and ELV1 and ELV2 compounds mediated upregulation of Bid in ARPE-19 cells under stress.
FIG. 6—(A) VLC-PUFA and elovanoids ELV1 and ELV2 mediated effect on Bid upregulation in ARPE-19 cells under stress. […] (B) VLC-PUFA and ELV1 and ELV2 compounds mediated upregulation of Bid in ARPE-19 cells under stress.

Bim = Bim protein in ARPE-19 cells under oxidative stress; format: cell-based, human; details: ARPE-19 cells under stress
From the text: (§1) FIG. 7. (A) VLC-PUFA and ELV1 and ELV2 compounds mediated downregulation of Bim in ARPE-19 cells under stress. Bim, another class of Bcl2 family, has been tested like Bid in this figure to confirm our previous results. VLC-PUFA and elovanoids protected against the upregulation of Bim by OS, similar to Bid, in RPE cells under stress. (B) VLC-PUFA and elovanoids mediated effect on Bim downregulation in ARPE-19 cells under stress.
as §1, with “7—A)” for “7. (A)”, “[…]” for “downregulation”, “protected” for “protected against”

Bcl-xL = Bcl-xL protein in ARPE-19 cells under oxidative stress; format: cell-based, human; details: ARPE-19 cells under OS
Experimental: (§2) FIG. 8. (A) Bcl-xL-upregulation by elovanoids ELV1 and ELV2 in ARPE-19 cells under stress. Bcl-xL is the antiapoptotic Bcl2 family protein. Like proapoptotic proteins Bid and Bim, the effect of elovaniod precursors on the antiapoptotic protein Bcl-xL was tested in this figure in RPE cells under OS. […] (B) Effect of NPD1, ELV1 and ELV2 on Bax expression in LOX-D cells under stress. Proapoptotic Bax was tested in this figure. […] C) VLC-PUFA and elovanoids ELV1 and ELV2 mediated effect on Bax upregulation in ARPE-19 cells under stress. In this experiment, elovanoid precursors along with VLC-PUFA were tested on the downregulation of the Bax protein in RPE cells under stress.
as §2, with “8—(A)” for “8. (A)”

Bax = Bax expression in LOX-D RPE cells under oxidative stress; format: cell-based, human
Experimental: as §2
as §2, with “8—(A)” for “8. (A)”

Bcl2 = Bcl2 protein in RPE (LOX-D / ARPE-19) cells under oxidative stress; format: cell-based, human
From the text: FIG. 9. (A) VLC-PUFA and elovanoids ELV1 and ELV2 mediated effect on Bcl2 upregulation in ARPE-19 cells under stress. In this experiment we tested the effect of elovanoid precursors on Bcl2 upregulation along with VLC-PUFA in stressed RPE. (B) Quantification of Bcl2 upregulation by NPD1, ELV1 and ELV2 in LOX-D cells. Bcl2 is an important antiapoptotic protein of the Bcl2 family protein.
FIG. 9—(A) VLC-PUFA and elovanoids ELV1 and ELV2 mediated effect on Bcl2 upregulation in ARPE-19 cells under stress. In this experiment we tested the effect of elovaniod precursors on Blc2 upregulation along with VLC-PUFA in stressed RPE. (B) Quantification of Bcl2 upregulation by NPD1, ELV1 and ELV2 in LOX-D cells. Bcl2 is an important antiapoptotic protein of the Bcl2 family protein.

| SMILES | conversion to mono- and di-hydroxylated derivatives in cell culture (FIG. 2) [1] | effect on Bid protein upregulated by OS (FIG. 6) (Bid) | effect on Bim upregulation by OS (FIG. 7) (Bim) | effect on antiapoptotic Bcl-xL protein (FIG. 8A) (Bcl-xL) | effect on Bax upregulation by OS (FIG. 8B) (Bax) | effect on Bcl2 protein (FIG. 9) (Bcl2) |
| --- | --- | --- | --- | --- | --- | --- |
| CC/C=C\C/C=C\C/C=C\C/C=C\C/C=C\C/C=C\CCCCCCCCCCCCCCC(=O)O [C34:6] | yielded a hydroxylated product; also recorded: could be detected | – | – | – | – | – |
| CC/C=C\C[C@H](O)\C=C/C=C/C=C/[C@H](O)C/C=C\C/C=C\CCCCCCCCCCCCCCC(=O)O [ELV2, (16Z,19Z,22R,23E,25E,27Z,29S,31Z)-22,29-dihydroxytetratriaconta-16,19,23,25,27,31-hexaenoic acid] | – | potent downregulation | potent downregulation | potent upregulation | potent downregulation | potent upregulation |
